In ChEMBL document CHEMBL3507680, “University of Dundee, Gates Library screen for HepG2 cell viability”:

Assay: Human HepG2 cell viability assay in 384 well format
Assay type: toxicity, cell-based
Parameters: dose 125 nL, time 70.5 hour; cytotoxicity at 70.5 h: concentration not given beside the values
Settings: HepG2 cells, read-out: Inhibition

Row | SMILES | cytotoxicity at 70.5 h [%]
1 | CCc1noc(CC)c1CNC(=O)Nc1cccc([S+](C)[O-])c1 (configuration not stated) | -1.9
2 | Cc1cnn(CC2CCCCN2C(=O)c2cc(Cl)c[nH]2)c1 (configuration not stated) | 7.01
3 | O=S1(=O)CCC(S(=O)(=O)c2cccc(S(=O)(=O)N3CCOCC3)c2)C1 (configuration not stated) | -8.35
4 | CN(Cc1ccccc1)C(=O)CCN1CCC2(CC1)[C@H](O)C[C@@H]2O | -8.64
5 | Cc1cc(S(=O)(=O)N2CCC(S(C)(=O)=O)C2)ccc1F (configuration not stated) | -5.71
6 | CN(Cc1cccc(F)c1)C(=O)CN1CCCC(Cn2cncn2)C1 (configuration not stated) | 15.6
7 | O=C(N1CCCC1)N1CCN(CC2CC2)c2ncccc2C1 | 6.34
8 | COCc1noc(CC2CN(c3ncnc4sc(C)c(C)c34)CCO2)n1 (configuration not stated) | 1.73
9 | c1nc(N2CCCCC2Cn2cncn2)c2ccsc2n1 (configuration not stated) | 14.7
10 | CC(c1nnc(-c2ccccc2)o1)N1CCC(Nc2ccccc2)CC1 (configuration not stated) | 8.58
11 | CCc1cnc(N2C[C@@H](NC(=O)c3cscn3)[C@H]3COC[C@H]32)nc1 | -11.1
12 | O=C(CSc1ccccc1)N1CCc2c(ncnc2N2CCOCC2)C1 | 0.558
13 | CC(C)(C)C(=O)N1CCCC(c2ncncc2-c2ccncc2)C1 (configuration not stated) | -4.45
14 | CCCS(=O)(=O)N1C[C@@H]2CN(Cc3cnn(C)c3)CCO[C@@H]2C1 | -1.12
15 | Cc1ccc(S(=O)(=O)N2Cc3c(CN(C)C)nn(C)c3C2)cc1 | 3.97
16 | CN(C)C(CNC(=O)N(Cc1ccco1)C1CC1)c1cccs1 (configuration not stated) | -11.4
17 | O=C(Nc1ccccc1F)C1CSCN1C(=O)CCc1ccco1 (configuration not stated) | -8.52
18 | CC(=O)N1CCC(NC2(Cc3cc(CN(C)C)on3)COC2)CC1 | 11.9
19 | CCc1cc(NCCc2cnccn2)n2nc(C)c(C)c2n1 | -5.77
20 | CC1CCN(S(=O)(=O)N2CCC(Oc3cnccn3)CC2)CC1 | -5.91
21 | CO[C@@H]1CCN(C(=O)c2cnoc2C)[C@H]1Cc1ccccc1 | 2.59
22 | CCN(CC(=O)NC(C)C)C(=O)c1csc(Cc2ccccc2)n1 | -9.03
23 | COc1ccc2c(c1)NC(C1CCNCC1)NS2(=O)=O (configuration not stated) | -4.76

Row | SMILES | cytotoxicity at 70.5 h [%]
24 | CC(C)CN1C(=O)CC[C@H]2CN(C(=O)Cn3ccccc3=O)CC[C@H]21 | -0.419
25 | CN(CC(=O)NCc1cccnc1N1CCCCC1)C(=O)c1cccs1 | 0.0514
26 | O=C(c1cnccn1)N1CCC(F)(F)C2(CCN(c3ccccn3)C2)C1 (configuration not stated) | -8.49
27 | O=C1CCCN1CCCNCc1cc(O)c2cccc(F)c2n1 | -3.49
28 | O=C(NCCCn1cncn1)N1CCCC(N2CCCC2)C1 (configuration not stated) | -4.6
29 | CC(C)CN1CCC(N2CCC(C(=O)N(C)C)CC2)CC1 | 3.98
30 | c1ccc2oc(CCCN3CCCC(Cn4cncn4)C3)nc2c1 (configuration not stated) | 19.8
31 | CC(=O)Nc1ccc(CN2CCc3[nH]cnc3C2c2ccc(C)o2)cc1 (configuration not stated) | -6.39
32 | CC(C)c1cc(C(=O)N2CCc3ccccc3C2C(=O)O)n(C)n1 (configuration not stated) | -5.14
33 | CCn1ccc2ccnc(CC3CN(C(=O)Cn4ccnc4C)C3)c21 | -5.67
34 | CC(C)Cc1cc(C(=O)N2CCC[C@H]2C(=O)N2CCOCC2)on1 | -9.69
35 | CN(Cc1ccco1)Cc1ccccc1CNC(=O)c1ccc[nH]1 | -9.87
36 | CC(NC(=O)NCCCc1n[nH]c(N)c1C#N)c1ccc(F)c(F)c1 (configuration not stated) | -2.56
37 | Cc1c(NC(=O)c2ncn[nH]2)cccc1C(=O)NC(C)(C)C | -12.5
38 | O=C(Nc1ccccc1)c1cccc(S(=O)(=O)NC[C@@H]2C[C@H](F)CN2)c1 | 6.01
39 | CN1CCCC(Cc2nccnc2Cl)CC1 (configuration not stated) | -3.4
40 | Cc1nn(CC(=O)Nc2cccc(F)c2)c(N)c1C#N | -5.02
41 | C[C@@H]1CN(CCOc2ccc(F)cc2)CC[C@@]1(O)C1CCOCC1 | -2.42
42 | COc1cc(C(=O)Nc2nc(C)no2)ccc1OC1CCCC1 | -4.68
43 | NC(=O)c1c(-c2ccc(Cl)cc2)csc1NC(=O)CCC(=O)O | -4.48
44 | Cc1ccc(CN2C[C@H]3CC[C@@H]2CN(Cc2[nH]cnc2C)C3)o1 | -0.228
45 | O=c1c2ccc(Cl)cc2ncn1CCCN1CCCCC1CO (configuration not stated) | -15.5
46 | O=C(NCc1ccco1)[C@@H]1C[C@H]2OCC[C@H]2N(c2ncc(F)cn2)C1 | -14.6

Row | SMILES | cytotoxicity at 70.5 h [%]
47 | CCNC(=O)c1c2c(N3CCN(C)CC3)ncnc2n2ccccc12 | 2.84
48 | N#Cc1c(Cl)nsc1N1CCN(CC2CC2)CC1 | 2.5
49 | CC(NC(=O)CN(C)S(C)(=O)=O)c1nnc2n1CCCCC2 (configuration not stated) | 48.1
50 | COc1ccc(C(=O)C2CCCN(Cc3ccon3)C2)c(OC)c1 (configuration not stated) | -10.4
51 | C=C1C(C)(C)[C@H]2CC[C@]1(C(=O)N1CCC(n3cc(CCO)nn3)CC1)C2 | -10.3
52 | CN(C)C(=O)NCc1ncn2c1CN(S(C)(=O)=O)CCC2 | -4.56
53 | CCNC(=O)CNCc1c(C(C)C)nn(C)c1N1CCOCC1 | -2.6
54 | COc1ccc(OC)c(CNC2CCCc3nc(N(C)C)ncc32)c1 (configuration not stated) | -7.31
55 | O=C1O[C@@H]2CN(CCc3ccccc3)C[C@@H]2N1CCCN1CCOCC1 | -3.23
56 | O=C(c1cccnc1O)N1CCN(Cc2ccccc2F)CC1 | 17.4
57 | COCC(=O)N1CCC(c2nc3ccc(N4CCCC4)cn3n2)CC1 | -5.18
58 | Cc1nnc([C@H]2C[C@H]3OCC[C@H]3N(S(=O)(=O)C3CC3)C2)o1 | 5.23
59 | CC(C)NC(=O)C1CCc2nnc(CNC(=O)C3CC3)n21 (configuration not stated) | -6.43
60 | COCCn1cnc2ccc(NC(=O)c3c(C)noc3C)cc2c1=O | 30.3
61 | CN(Cc1ccsc1)C(=O)C1CCC(=O)N(Cc2ccccn2)C1 (configuration not stated) | -5.03
62 | Cc1nnc(N2CCC(CNC(=O)OC(C)(C)C)CC2)c(C#N)c1C | 1.28
63 | O=C(NCC(CO)Cc1ccc(Cl)cc1)c1ccncc1Cl (configuration not stated) | -1.15
64 | Cn1ncc2c(NC3CN4CCC3CC4)nc(-c3ccncc3)nc21 (configuration not stated) | 12
65 | COCCn1ccnc1CN1CCc2[nH]cnc2C1c1ccccn1 (configuration not stated) | -11.2
66 | CC(C)CCN(C(=O)Nc1cccc(C(=O)N(C)C)c1)C1CC1 | -7.58
67 | Cc1cccc(Cn2cc(Br)c(NS(C)(=O)=O)n2)c1 | -6.39
68 | CCCc1cc(CNC2CCN(c3cc(C)nc(N)n3)CC2)on1 | -5.61
69 | COc1cccc(CCC2CCCN(C(=O)C3=NN(C)C(=O)CC3)C2)c1 (configuration not stated) | -5.36

Row | SMILES | cytotoxicity at 70.5 h [%]
70 | CCOc1ccc(C#N)cc1NCC(=O)NC(=O)NC | -3.9
71 | CC(=O)N1CCN(c2ccccc2CNc2cncc(C)c2)CC1 | 4.13
72 | Cn1cc(NC(=O)c2cc3c(s2)CCCC3)cn1 | -0.0582
73 | CC(=O)N1CCOC(c2cncc(CCC(=O)N(C)C)n2)C1 (configuration not stated) | 5
74 | CC(C)NC(=O)N1CC[C@H]2[C@H]1CCN2c1ncccn1 | -5.58
75 | CCc1nc(CN2CCCC(NCc3nc(C)c(C)o3)C2)no1 (configuration not stated) | -10.5
76 | Cc1cc(N2CCc3cncnc3C2)n2nc(C(F)(F)F)nc2n1 | -104
77 | CCCN1CCN(Cc2cn(CCC(N)=O)c3ccccc23)CC1 | -3.42
78 | COc1ccccc1C(O)CNC(=O)NCc1cc[nH]n1 (configuration not stated) | -4.26
79 | O=C(NC1CC1)[C@H]1C[C@@H]2CCN(Cc3ccc4c(c3)OCO4)C[C@@H]2O1 | -12.5
80 | Cc1noc(C)c1CN1CC2(CCN(C(=O)c3cc[nH]n3)C2)CC1=O (configuration not stated) | -6.88
81 | CCN(CCc1nc2cc(C)ccc2[nH]1)C(=O)COC | -4.93
82 | O=C(CCCOc1cccc(F)c1)N1CCCC(n2cncn2)C1 (configuration not stated) | 1.02
83 | Cc1cc(C(=O)NCCC(=O)N2CCCc3ccccc32)no1 | -4.18
84 | COCCN1CCC(c2nc3ccc(N4CCCC4)cn3n2)CC1 | -8.32
85 | COc1cc(CNCCc2cnn(C)c2)cc(OC)c1OC | 21.4
86 | CC(C)n1[nH]c(=O)c2c1NC(=O)CSC2C1CCCCC1 (configuration not stated) | 9.25
87 | CC(=O)N1CCC(=O)N(C2CCCC2)Cc2ccccc21 | 7.97
88 | C1CCC(OCCN2CCN(CCOC3CCCCC3)CC2)CC1 | -5.88
89 | COc1ccccc1CC(NC(=O)N1CCC[C@@H]1CO)C(C)C (some centres not stated) | -6.32
90 | O=C(c1cccn1Cc1cccs1)N1CCN(C(=O)C2CC2)CC1 | -20.1
91 | CN(Cc1ccc(F)c2cccnc12)C1CCS(=O)(=O)C1 (configuration not stated) | -9.82
92 | Cc1nc(CNC(=O)Nc2ccc3c(ccn3CCN(C)C)c2)no1 | -2.87

Row | SMILES | cytotoxicity at 70.5 h [%]
93 | COCC1CN(C(=O)Cc2cccs2)Cc2c1cnn2C (configuration not stated) | 21.2
94 | O=C(COCC1CCCO1)N(Cc1cccnc1)c1ccc(F)cc1 (configuration not stated) | 2.18
95 | O=C(C1CCOC1)N1CCC2(CC1)COCCN(Cc1ccncc1)C2 (configuration not stated) | -11.2
96 | CC(=O)N1CCn2c(nnc2C2CCCCN2C(C)=O)C1 (configuration not stated) | -4.85
97 | CC(NCCCN1CCCC1=O)c1cc(Br)ccc1O (configuration not stated) | -5.37
98 | Cc1ncsc1CCC(=O)NCc1csc(N(C)C)n1 | -1.1
99 | O=C(C1CCC1)N1C[C@H]2CNC[C@H]2C1 | 13.3
100 | CNCc1ccc([C@@H]2CN(C)C[C@H]2C(N)=O)cc1 | 19.9
101 | COc1c(CNC(C)c2sc(C)nc2C)c(C(C)C)nn1C (configuration not stated) | 23.8
102 | O=C(CS(=O)(=O)c1ccccc1Cl)NC1CCCCNC1=O (configuration not stated) | -25.9
103 | Cc1c(C(=O)NC(CN2CCCC2=O)c2ccccc2)cnn1C (configuration not stated) | 0.932
104 | COc1ccc(CNC(=O)CCCc2nnc3ccc(OC)nn23)cc1 | -14.6
105 | OCC1COCCN(Cc2cc(C3CCCCC3)no2)C1 (configuration not stated) | -9.08
106 | COc1c(C)cnc(CN(C)C(=O)c2ccc(C3CCCO3)s2)c1C (configuration not stated) | -6.12
107 | COc1cccc(N2CC3(CCN(c4cnccn4)C3)CC2=O)c1 (configuration not stated) | 13.8
108 | Cc1ccc(CN2CCO[C@@H]3C[C@@H](C(=O)NC(C)C)C[C@H]32)o1 | -8.04
109 | CCOc1ncnc2c1CCN(C(=O)CN(C)C)CC2 | 0.621
110 | COc1cc(Br)c(S(=O)(=O)NC(=O)C(C)OC)cc1OC (configuration not stated) | -6.11
111 | COc1cccc2c1OCCCN(c1nc(N)nc3c1CCNC3)C2 | 12.6
112 | O=C(CC1CCCC1)N1CCC(c2cc3ncccc3c(O)n2)CC1 | -9.11
